The values that follow come from patent publication US9499492B2, “4-(ortho)-fluorophenyl-5-fluoropyrimidin-2-yl amines containing a sulfoximine group” (BAYER PHARMA AKTIENGESELLSCHAFT, priority 2012, dated 2016).

The structures appear in SMILES notation. Like-named read-outs stand apart in the source and are kept apart here. Some results are limits rather than exact numbers.

For assay [1], the system named is A2780, human ovarian carcinoma cells. Nature of the assay: Proliferation assay, A2780 (Method 3). The conditions noted are these: A2780, 4 days, crystal violet, read-out: Inhibition of A2780 cell proliferation IC50. Format: cell-based. As to the method:
(§1) After 24 hours, the cells of one plate (zero-point plate) were stained with crystal violet (see below), while the medium of the other plates was replaced by fresh culture medium (200 μl), to which the test substances were added in various concentrations (0 μM, as well as in the range of 0.001-10 μM; the final concentration of the solvent dimethyl sulfoxide was 0.5%). The cells were incubated for 4 days in the presence of test substances. Cell proliferation was determined by staining the cells with crystal violet: the cells were fixed by adding 20 μl/measuring point of an 11% glutaric aldehyde solution for 15 minutes at room temperature. After three washing cycles of the fixed cells with water, the plates were dried at room temperature. The cells were stained by adding 100 μl/measuring point of a 0.1% crystal violet solution (pH 3.0). After three washing cycles of the stained cells with water, the plates were dried at room temperature. The dye was dissolved by adding 100 μl/measuring point of a 10% acetic acid solution. The extinction was determined by photometry at a wavelength of 595 nm. The change of cell number, in percent, was calculated by normalization of the measured values to the extinction values of the zero-point plate (=0%) and the extinction of the untreated (0 μm) cells (=100%).

In assay [2] the target is CDK2/CycE (Homo sapiens (Human), UniProt P24941). Nature of the assay: CDK2/CycE kinase assay (Method 2). Format: biochemical. Conditions: 10 μM ATP. An excerpt: 2. CDK2/CycE Kinase Assay:
CDK2/CycE-inhibitory activity of compounds of the present invention was quantified employing the CDK2/CycE TR-FRET assay as described in the following paragraphs:
Recombinant fusion proteins of GST and human CDK2 and of GST and human CycE, expressed in insect cells (Sf9) and purified by Glutathion-Sepharose affinity chromatography, were purchased from ProQinase GmbH (Freiburg, Germany). As substrate for the kinase reaction biotinylated peptide biotin-Ttds-[…] (C-terminus in amid form) was used which can be purchased e.g. form the company JERINI Peptide Technologies (Berlin, Germany).
(§2) For the assay 50 nl of a 100 fold concentrated solution of the test compound in DMSO was pipetted into a black low volume 384 well microtiter plate (Greiner Bio-One, Frickenhausen, Germany), 2 μl of a solution of CDK2/CycE in aqueous assay buffer [50 mM Tris/HCl pH 8.0, 10 mM MgCl2, 1.0 mM dithiothreitol, 0.1 mM sodium ortho-vanadate, 0.01% (v/v) Nonidet-P40 (Sigma)] were added and the mixture was incubated for 15 min at 22° C. to allow pre-binding of the test compounds to the enzyme before the start of the kinase reaction. […] The concentration of CDK2/CycE was adjusted depending of the activity of the enzyme lot and was chosen appropriate to have the assay in the linear range, typical concentrations were in the range of 130 ng/ml.
(§3) The resulting mixture was incubated 1 h at 22° C. to allow the formation of complex between the phosphorylated biotinylated peptide and the detection reagents. Subsequently the amount of phosphorylated substrate was evaluated by measurement of the resonance energy transfer from the Eu-chelate to the streptavidine-XL. Therefore, the fluorescence emissions at 620 nm and 665 nm after excitation at 350 nm was measured in a TR-FRET reader, e.g. a Rubystar (BMG Labtechnologies, Offenburg, Germany) or a Viewlux (Perkin-Elmer). The ratio of the emissions at 665 nm and at 622 nm was taken as the measure for the amount of phosphorylated substrate.

For assay [3], the system named is HeLa, human cervical tumour cells. Nature of the assay: Proliferation assay, HeLa (Method 3). It is filed as cell-based. The conditions noted are these: 4 days, crystal violet, read-out: Inhibition of HeLa cell proliferation IC50. The protocol: as §1
The target of assay [4] is CDK9/CycT1 (Homo sapiens (Human), UniProt P50750). The experiment in a line: CDK9/CycT1 kinase assay (Method 1a). It is filed as biochemical. Conditions: for IC50: 10 μM ATP; for Selectivity CDK9/CDK2: derived from Methods 1a. and 2.
Excerpt: 1a. CDK9/CycT1 Kinase Assay:
CDK9/CycT1-inhibitory activity of compounds of the present invention was quantified employing the CDK9/CycT1 TR-FRET assay as described in the following paragraphs:
Recombinant full-length His-tagged human CDK9 and CycT1, expressed in insect cells and purified by Ni-NTA affinity chromatography, were purchased from Invitrogen (Cat. No PV4131). As substrate for the kinase reaction biotinylated peptide biotin-Ttds-[…] (C-terminus in amid form) was used which can be purchased e.g. form the company JERINI Peptide Technologies (Berlin, Germany).
as §2, with “CDK9/CycT1” for “CDK2/CycE”, “1 μg/ml.” for “130 ng/ml.”
as §3, with “HTRF” for “TR-FRET”

CDK9/CycT1, sequence (P50750 whole entry): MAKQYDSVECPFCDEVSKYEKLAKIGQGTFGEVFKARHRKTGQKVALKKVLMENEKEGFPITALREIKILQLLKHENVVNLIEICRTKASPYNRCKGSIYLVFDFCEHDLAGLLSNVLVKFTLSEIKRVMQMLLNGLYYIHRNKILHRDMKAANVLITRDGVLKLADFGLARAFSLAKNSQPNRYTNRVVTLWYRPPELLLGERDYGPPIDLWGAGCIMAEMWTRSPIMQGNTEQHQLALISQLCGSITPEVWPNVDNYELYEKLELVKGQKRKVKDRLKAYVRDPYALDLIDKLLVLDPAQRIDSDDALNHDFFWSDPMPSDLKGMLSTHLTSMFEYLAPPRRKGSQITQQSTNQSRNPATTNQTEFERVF
CDK9/CycT1, sequence (O60563 whole entry partner): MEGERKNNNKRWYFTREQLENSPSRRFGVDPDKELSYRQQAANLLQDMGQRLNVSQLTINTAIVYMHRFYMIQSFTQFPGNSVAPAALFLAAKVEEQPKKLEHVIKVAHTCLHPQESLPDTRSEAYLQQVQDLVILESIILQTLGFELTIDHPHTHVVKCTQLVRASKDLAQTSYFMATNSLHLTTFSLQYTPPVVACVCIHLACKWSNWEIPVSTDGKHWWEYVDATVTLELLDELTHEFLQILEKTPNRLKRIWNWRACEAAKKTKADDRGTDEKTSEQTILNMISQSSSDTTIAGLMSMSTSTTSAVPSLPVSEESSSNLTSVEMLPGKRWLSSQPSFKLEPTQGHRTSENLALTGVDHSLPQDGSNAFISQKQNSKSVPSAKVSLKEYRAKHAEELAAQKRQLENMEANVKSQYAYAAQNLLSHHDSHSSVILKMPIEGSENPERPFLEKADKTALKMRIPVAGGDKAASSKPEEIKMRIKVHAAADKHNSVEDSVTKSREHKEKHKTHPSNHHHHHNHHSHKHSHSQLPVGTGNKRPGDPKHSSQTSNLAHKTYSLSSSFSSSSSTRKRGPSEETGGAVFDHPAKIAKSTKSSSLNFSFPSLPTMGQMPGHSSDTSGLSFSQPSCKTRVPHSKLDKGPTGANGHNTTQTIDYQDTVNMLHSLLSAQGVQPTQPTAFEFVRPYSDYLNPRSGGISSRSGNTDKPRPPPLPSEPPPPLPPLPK

With `Cc1cc(CS(C)(=O)=NC#N)cc(Nc2ncc(F)c(-c3ccc(F)cc3F)n2)c1` (racemic) [Example 16, (rac)-[(3-{[4-(2,4-Difluorophenyl)-5-fluoropyrimidin-2-yl]amino}-5-methylbenzyl)(methyl)oxido-λ^6-sulfanylidene]cyanamide], the IC50 in assay [1] (Homo sapiens, A2780, 96 h) came to 300 nM; in assay [2] it was 470 nM; in assay [3] (Homo sapiens, 96 h), 850 nM.

On to `Cc1cc(CS(C)(=O)=NC#N)cc(Nc2ncc(F)c(-c3ccc(F)cc3F)n2)c1` (single isomer, unassigned) [Example 36, [(3-{[4-(2,4-Difluorophenyl)-5-fluoro-pyrimidin-2-yl]amino}-5-methylbenzyl)-(methyl)oxido-λ^6-sulfanylidene]cyanamide], for which the IC50 is 338 nM in assay [1], 400 nM in assay [2] and 1020 nM in assay [3].

As to `Cc1cc(CS(C)(=O)=NC#N)cc(Nc2ncc(F)c(-c3ccc(F)cc3F)n2)c1` (single isomer, unassigned) [Example 35, [(3-{[4-(2,4-Difluorophenyl)-5-fluoro-pyrimidin-2-yl]amino}-5-methylbenzyl)-(methyl)oxido-λ^6-sulfanylidene]cyanamide], the IC50 in assay [1] (Homo sapiens, A2780, 96 h) was found to be 327 nM; in assay [2] it was 390 nM; in assay [3], 458 nM.

For the compound `COc1cc(CS(C)(=N)=O)cc(Nc2ncc(F)c(-c3ccc(F)cc3F)n2)c1` (racemic) [Example 21, (rac)-4-(2,4-Difluorophenyl)-5-fluoro-N-{3-methoxy-5-[(S-methylsulfonimidoyl)methyl]phenyl}pyrimidin-2-amine], the IC50 in assay [3] (Homo sapiens, 96 h) was 780 nM.

For the compound `CS(=N)(=O)Cc1cc(F)cc(Nc2ncc(F)c(-c3ccc(F)cc3F)n2)c1` (single isomer, unassigned) [Example 12, 4-(2,4-Difluorophenyl)-5-fluoro-N-{3-fluoro-5-[(S-methylsulfonimidoyl)methyl]phenyl}pyrimidin-2-amine], the IC50 is greater than 1000 nM in assay [1] (Homo sapiens, A2780, 96 h); 1700 nM in assay [2]; 1940 nM in assay [3] (Homo sapiens, 96 h).

As for `CCOC(=O)N=S(C)(=O)Cc1cccc(Nc2ncc(F)c(-c3ccc(F)cc3F)n2)c1` (racemic) [Example 8, (rac)-Ethyl[(3-{[4-(2,4-difluorophenyl)-5-fluoropyrimidin-2-yl]amino}benzyl)(methyl)oxido-λ^6-sulfanylidene]carbamate], the IC50 is 560 nM in assay [2] and 4470 nM in assay [3] (Homo sapiens, 96 h).

With `CS(=N)(=O)Cc1cc(Br)cc(Nc2ncc(F)c(-c3ccc(F)cc3F)n2)c1` (racemic) [Example 19, (rac)-N-{3-Bromo-5-[(S-methylsulfonimidoyl)methyl]phenyl}-4-(2,4-difluorophenyl)-5-fluoropyrimidin-2-amine], the IC50 in assay [4] was 13 nM; in assay [2] it was 380 nM; in assay [3] (Homo sapiens, 96 h), 1600 nM. For the same compound, the “Selectivity CDK9/CDK2” value in assay [4] is recorded as 30.

`CS(=N)(=O)Cc1cc(F)cc(Nc2ncc(F)c(-c3ccc(F)cc3F)n2)c1` (single isomer, unassigned) [Example 13, 4-(2,4-Difluorophenyl)-5-fluoro-N-{3-fluoro-5-[(S-methylsulfonimidoyl)methyl]phenyl}pyrimidin-2-amine]: the IC50 in assay [1] was greater than 1000 nM; in assay [2] it was 730 nM; in assay [3] it was 1760 nM.

`CS(=N)(=O)Cc1cc(F)cc(Nc2ncc(F)c(-c3ccc(F)cc3F)n2)c1` (racemic) [Example 11, (rac)-4-(2,4-Difluorophenyl)-5-fluoro-N-{3-fluoro-5-[(S-methylsulfonimidoyl)methyl]phenyl}pyrimidin-2-amine]: the IC50 in assay [1] (Homo sapiens, A2780, 96 h) turned out to be 900 nM; in assay [3] (Homo sapiens, 96 h), 1320 nM.

Regarding `CS(=O)(Cc1cc(Br)cc(Nc2ncc(F)c(-c3ccc(F)cc3F)n2)c1)=NC#N` (single isomer, unassigned) [Example 40, [(3-Bromo-5-{[4-(2,4-difluorophenyl)-5-fluoropyrimidin-2-yl]amino}benzyl)(methyl)oxido-λ^6-sulfanylidene]cyanamide], the IC50 in assay [1] was determined as 371 nM; in assay [2] it was 102 nM; in assay [3], 697 nM.

As for `CS(=N)(=O)Cc1cc(Br)cc(Nc2ncc(F)c(-c3ccc(F)cc3F)n2)c1` (single isomer, unassigned) [Example 41, N-{3-Bromo-5-[(S-methylsulfonimidoyl)methyl]phenyl}-4-(2,4-difluorophenyl)-5-fluoropyrimidin-2-amine], in assay [4], the IC50 was 18 nM and the “Selectivity CDK9/CDK2” value was determined as 28. In addition, the IC50 in assay [2] came out at 509 nM.

In the case of `CS(=O)(Cc1cc(F)cc(Nc2ncc(F)c(-c3ccc(F)cc3F)n2)c1)=NC#N` (racemic) [Example 10, (rac)-[(3-{[4-(2,4-Difluorophenyl)-5-fluoropyrimidin-2-yl]amino}-5-fluorobenzyl)(methyl)oxido-λ^6-sulfanylidene]cyanamide], the IC50 in assay [1] (Homo sapiens, A2780, 96 h) stood at 430 nM; in assay [2], 570 nM; in assay [3] (Homo sapiens, 96 h), 1050 nM.

As for `CS(=O)(Cc1cc(Br)cc(Nc2ncc(F)c(-c3ccc(F)cc3F)n2)c1)=NC#N` (single isomer, unassigned) [Example 39, [(3-Bromo-5-{[4-(2,4-difluorophenyl)-5-fluoropyrimidin-2-yl]amino}benzyl)(methyl)oxido-λ^6-sulfanylidene]cyanamide], the IC50 in assay [1] (Homo sapiens, A2780, 96 h) came out at 619 nM; in assay [2], 430 nM; in assay [3] (Homo sapiens, 96 h), 1060 nM.
